# Measured values from patent publication US11401278B2, “Macrocyclic indole derivatives” (The Broad Institute, Inc., priority 2017, dated 2022).
# Where “and” joins values, the source holds several entries; their conditions need not be identical. Equal entries are not always repeated. Structures can show the parent of a compound that is named as a salt. Where two headings read alike, the source gives them in different places.
# Tests used:
# HMC-1-8 = assay: Antiproliferation assay (Assay 7), HMC-1-8; format: cell-based; settings: CellTiter-Glo, several values per example, read-out: Antiproli HMC-1-8 [M] IC50
# Method in brief: (§1)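 Cells were exposed to compound for 72 hours at 37° C. Viability was measured by CellTiter-Glo luminescence. A day 0 plate read at the start served as the time-zero reference.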
# SUDHL5 = assay: Induction of caspase-3/7 activity (Assay 4), SUDHL5; format: cell-based; settings: caspase-3/7 induction, median
# Method in brief: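 Caspase-3/7 activity measured by Caspase-Glo 3/7 luminescence in DLBCL cells after 3 h compound treatment at 37 °C. Medium-only background subtracted. EC50 fitted with C0 fixed at 1 and top set to the reference compound's plateau/max induction.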
# AMO-1 = assay: Antiproliferation assay (Assay 7), AMO-1; format: cell-based; settings: CellTiter-Glo, several values per example, read-out: Antiproli AMO-1 [M] IC50
# Method in brief: as §1
# MV-4-11 = assay: Antiproliferation assay (Assay 7), MV-4-11; format: cell-based; settings: Homo sapiens, MV4-11, 72 h, CellTiter-Glo, several values per example, read-out: Antiproli MV-4-11 [M] IC50
# Method in brief: as §1
# BCL-XL = BCL-XL (Homo sapiens (Human), UniProt Q07817); assay: Protein-protein interaction assay BCL-XL/Bad BH3 peptide (BCL-XL assay, TR-FRET); format: binding; settings: His-BCL-XL / Bad BH3 peptide, median
# Sequence of BCL-XL (Q07817 other isoform, or with tags, fused parts or gaps): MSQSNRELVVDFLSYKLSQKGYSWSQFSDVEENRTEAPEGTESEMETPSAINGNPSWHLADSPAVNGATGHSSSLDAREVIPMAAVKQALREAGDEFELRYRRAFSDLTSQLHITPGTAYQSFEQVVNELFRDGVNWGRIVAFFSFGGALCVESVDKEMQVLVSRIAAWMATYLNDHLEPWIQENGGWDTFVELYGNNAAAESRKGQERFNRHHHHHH
# Method in brief: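 His-tagged human BCL-XL (aa 1-212, 1 nM final) was preincubated 10 min at 22 °C with compound (11 concentrations, 0.1 nM–20 μM), then biotinylated Bad BH3 peptide (1 nM) and TR-FRET reagents were added. Incubation: 1 h at 22 °C, then overnight at 4 °C, pH 7 Tris buffer. IC50 from 4-parameter fit of 665/620 ratio.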
"EC50 (SUDHL5; Homo sapiens, SU-DHL-5, 3 h)",IC50 (MV-4-11),IC50 (BCL-XL),Compound,IC50 (HMC-1-8; 72 h),IC50 (HMC-1-8; 72 hours),IC50 (AMO-1; 72 hours),EC50 (SUDHL5; 3 hours),"IC50 (AMO-1; Homo sapiens, AMO1, 72 h)"
200 nM,,,"CCc1c2c(nn1C)CN(CC)S(=O)(=O)CCCn1c(C(=O)O)c(CCCOc3cccc4cc(F)ccc34)c3ccc(Cl)c-2c31 (racemic) [Example 56, (rac)-4-chloro-3,14-diethyl-7-{3-[(6-fluoro-1-naphthyl)oxy]propyl}-2-methyl-11,12,14,15-tetrahydro-2H,10H-pyrazolo[3′,4′:4,5][1,2,8]thiadiazacycloundecino[6,7,8-hi]indole-8-carboxylic acid 13,13-dioxide]",1.5e-06 M,2.3e-06 M and 2.7e-06 M,,,
,,,"CCc1c2c(nn1C)C(CCN1CCOCC1)N(C)S(=O)(=O)CCCn1c(C(=O)O)c(CCCOc3cccc4cc(F)ccc34)c3ccc(Cl)c-2c31 (racemic) [Example 73, (rac)-(4-chloro-3-ethyl-7-{3-[(6-fluoronaphthalen-1-yl)oxy]propyl}-2,14-dimethyl-15-[2-(morpholin-4-yl)ethyl]-13,13-dioxo-10,11,12,13,14,15-hexahydro-2H-13lambda^6-pyrazolo[3′,4′:4,5][1,2,8]thiadiazacycloundecino[6,7,8-hi]indole-8-carboxylic acid (Racemate 1)]",,1e-06 M,2.6e-08 M and 2.5e-08 M,23 nM,
,,,"CCc1c2c(nn1C)CN(C1CC1)S(=O)(=O)CCCn1c(C(=O)O)c(CCCOc3cccc4cc(F)ccc34)c3ccc(Cl)c-2c31 (single isomer, unassigned; enantiomer 1) [Example 54, (−)-4-chloro-14-cyclopropyl-3-ethyl-7-{3-[(6-fluoronaphthalen-1-yl)oxy]propyl}-2-methyl-13,13-dioxo-10,11,12,13,14,15-hexahydro-2H-13lambda^6-pyrazolo[3′,4′:4,5][1,2,8]thiadiazacycloundecino[6,7,8-hi]indole-8-carboxylic acid N-ethylethanamine Salt (Enantiomer 1)]",,2.2e-06 M and 2.5e-06 M,,260 nM,
,,,"CCNCC.CCc1c2c(nn1C)C(CCN1CCOCC1)N(C)S(=O)(=O)CCCn1c(C(=O)O)c(CCCOc3cccc4cc(F)ccc34)c3ccc(Cl)c-2c31 (single isomer, unassigned; enantiomer 2) [Example 76, 4-chloro-3-ethyl-7-{3-[(6-fluoronaphthalen-1-yl)oxy]propyl}-2,14-dimethyl-15-[2-(morpholin-4-yl)ethyl]-13,13-dioxo-10,11,12,13,14,15-hexahydro-2H-13lambda^6-pyrazolo[3′,4′:4,5][1,2,8]thiadiazacycloundecino[6,7,8-hi]indole-8-carboxylic acid-N-ethylethanamine Salt (Enantiomer 2)]",,3.5e-07 M and 4.1e-07 M,,6.5 nM,
1100 nM,2.5e-06 M,> 20000 nM,"CCc1c2c(nn1C)CN(C)S(=O)(=O)CCCn1c(C(=O)O)c(CCCOc3ccc(F)c4ccccc34)c3ccc(Cl)c-2c31 [Example 24, (rac)-13-Chloro-12-ethyl-1-(34(4-fluoronaphthalen-1-yl)oxy)propyl)-8,11-dimethyl-4,5,6,8,9,11-hexahydropyrazolo[3′,4′:4,5][1,2,8]thiadiazacycloundecino[6,7,8-hi]indole-2-carboxylic acid 7,7-dioxide]",,,,,4.3e-06 M
1700 nM,3.5e-06 M,> 20000 nM,"Cc1c2c(nn1C)CN(C)S(=O)(=O)CCCn1c(C(=O)O)c(CCCOc3ccc(F)c4ccccc34)c3ccc(F)c-2c31 [Example 30, (rac)-13-Fluoro-1-(34(4-fluoronaphthalen-1-yl)oxy)propyl)-8,11,12-trimethyl-5,6,9,11-tetrahydro-4H,8H-pyrazolo[3′,4′:4,5][1]thia[2,8]diazacycloundecino[6,7,8-hi]indole-2-carboxylic acid 7,7-dioxide]",,,,,7e-06 M
